Common to all, as to experiment: In vitro antifungal activity (MIC), serial agar dilution method
Holding throughout (format): cell-based
Holding throughout (conditions): Sabouraud dextrose agar, 40 hours at 28° C.
Background: Agar dilution tests growth on a series of plates holding different concentrations.

One test deals with Cryptococcus neoformans. The protocol:
(§1) Antifungal activities of representative compounds of the present invention were evaluated in vitro. The minimum inhibitory concentrations (MICs) against various fungi were determined by serial agar dilution method using Sabouraud dextrose agar. Thus, approximately 0.003 ml of fungal suspension containing 10^6 cells/ml was applied to the surface of agar plates containing the test antibiotics. The MIC values recorded after the cultures had been incubated for 40 hours at 28° C. are set forth below in Table 1.

Test [1] concerns Trichophyton mentagrophytes. The protocol:
as §1

For the next test, the system named is Candida albicans. The protocol:
as §1

Another test relates to Aspergillus fumigatus. As to the method: as §1

In brackets after ≈: the same amount, converted by molar mass.

The text below walks through data of US5696096A, “Pradimicin derivatives” (Bristol-Myers Squibb Company, priority 1990, dated 1997).

The term MIC denotes the lowest concentration found to suppress growth. In the case of `CN[C@@H]1[C@H](O[C@@H]2O[C@H](C)[C@@H](O)[C@H](O)[C@H]2O)[C@@H](O)[C@H](O[C@H]2c3cc(C)c(C(=O)N[C@H](C)C(=O)O)c(O)c3-c3c(cc4c(c3O)C(=O)c3cc(OC)cc(O)c3C4=O)[C@@H]2O)O[C@@H]1C` [Example 4, 3'-O-(6-Deoxy-β-D-glucopyranosyl)pradimicin B], the MIC with Cryptococcus neoformans turned out to be 1.6 µg/mL (≈ 1.87 µM); in test [1], 1.6 µg/mL (≈ 1.87 µM); in the test on Candida albicans, 25 µg/mL (≈ 29.2 µM); in the test on Aspergillus fumigatus it was 3.1 µg/mL (≈ 3.63 µM).
For `CN[C@@H]1[C@H](O[C@@H]2O[C@H](CO)[C@@H](O)[C@H](O)[C@H]2O)[C@@H](O)[C@H](O[C@H]2c3cc(C)c(C(=O)N[C@H](C)C(=O)O)c(O)c3-c3c(cc4c(c3O)C(=O)c3cc(OC)cc(O)c3C4=O)[C@@H]2O)O[C@@H]1C` [Example 6, 3'-O-β-D-glucopyranosylpradimicin B], the MIC in the test on Cryptococcus neoformans came out at 1.6 µg/mL (≈ 1.84 µM); in test [1] it was 3.1 µg/mL (≈ 3.56 µM); against Candida albicans, 12.5 µg/mL (≈ 14.4 µM); against Aspergillus fumigatus, 3.1 µg/mL (≈ 3.56 µM).
As to `CN[C@@H]1[C@H](O[C@@H]2O[C@H](C)[C@H](O)[C@H](O)[C@H]2O)[C@@H](O)[C@H](O[C@H]2c3cc(C)c(C(=O)N[C@H](C)C(=O)O)c(O)c3-c3c(cc4c(c3O)C(=O)c3cc(OC)cc(O)c3C4=O)[C@@H]2O)O[C@@H]1C` [Example 5, 3'-O-(β-D-Fucopyranosyl)pradimicin B], the MIC with Cryptococcus neoformans amounted to 1.6 µg/mL (≈ 1.87 µM); in test [1], 1.6 µg/mL (≈ 1.87 µM); against Candida albicans, 6.3 µg/mL (≈ 7.37 µM); against Aspergillus fumigatus it was 3.1 µg/mL (≈ 3.63 µM).
On to `CN[C@@H]1[C@H](O)[C@@H](O)[C@H](O[C@H]2c3cc(C)c(C(=O)N[C@H](C)C(=O)O)c(O)c3-c3c(cc4c(c3O)C(=O)c3cc(OC)cc(O)c3C4=O)[C@@H]2O)O[C@@H]1C` [Pradimicin B, reference compound], for which the MIC came to 0.8 µg/mL (≈ 1.13 µM) in the test on Cryptococcus neoformans, 6.3 µg/mL (≈ 8.89 µM) in test [1], 3.1 µg/mL (≈ 4.37 µM) against Candida albicans and 6.3 µg/mL (≈ 8.89 µM) with Aspergillus fumigatus.
Consider `CN[C@@H]1[C@H](O[C@H]2OC[C@H](O)[C@@H](O)[C@@H]2O)[C@@H](O)[C@H](O[C@H]2c3cc(C)c(C(=O)N[C@H](C)C(=O)O)c(O)c3-c3c(cc4c(c3O)C(=O)c3cc(OC)cc(O)c3C4=O)[C@@H]2O)O[C@@H]1C` [Example 1, 3'-O-(β-L-xylopyranosyl)pradimicin B], for which the MIC was 1.6 µg/mL (≈ 1.9 µM) in the test on Cryptococcus neoformans, above 100 µg/mL in test [1], 50 µg/mL (≈ 59.5 µM) with Candida albicans and above 100 µg/mL in the test with Aspergillus fumigatus.
As for `CN[C@@H]1[C@H](O[C@@H]2OC[C@@H](O)[C@@H](O)[C@H]2O)[C@@H](O)[C@H](O[C@H]2c3cc(C)c(C(=O)N[C@H](C)C(=O)O)c(O)c3-c3c(cc4c(c3O)C(=O)c3cc(OC)cc(O)c3C4=O)[C@@H]2O)O[C@@H]1C` [Example 2, 3'-O-(β-D-Ribopyranosyl)-pradimicin B], the MIC in the test with Cryptococcus neoformans is 1.6 µg/mL (≈ 1.9 µM); in test [1] it was 25 µg/mL (≈ 29.7 µM); in the test with Candida albicans it was above 25 µg/mL; against Aspergillus fumigatus, 12.5 µg/mL (≈ 14.9 µM).
As for `CN[C@@H]1[C@H](O[C@@H]2OC[C@H](O)[C@H](O)[C@H]2O)[C@@H](O)[C@H](O[C@H]2c3cc(C)c(C(=O)N[C@H](C)C(=O)O)c(O)c3-c3c(cc4c(c3O)C(=O)c3cc(OC)cc(O)c3C4=O)[C@@H]2O)O[C@@H]1C` [Example 3, 3'-O-(α-L-Arabinopyranosyl)pradimicin B], the MIC in the test with Cryptococcus neoformans was 1.6 µg/mL (≈ 1.9 µM); in test [1], 6.3 µg/mL (≈ 7.49 µM); in the test on Candida albicans it was 6.3 µg/mL (≈ 7.49 µM); against Aspergillus fumigatus, 6.3 µg/mL (≈ 7.49 µM).
Consider `CN[C@@H]1[C@H](O[C@@H]2OC[C@@H](O)[C@H](O)[C@H]2O)[C@@H](O)[C@H](O[C@H]2c3cc(C)c(C(=O)N[C@H](C)C(=O)O)c(O)c3-c3c(cc4c(c3O)C(=O)c3cc(OC)cc(O)c3C4=O)[C@@H]2O)O[C@@H]1C` [Pradimicin A, reference compound], for which the MIC with Cryptococcus neoformans was 0.8 µg/mL (≈ 0.951 µM); in test [1] it was 1.6 µg/mL (≈ 1.9 µM); in the test on Candida albicans, 50 µg/mL (≈ 59.5 µM); in the test on Aspergillus fumigatus, 1.6 µg/mL (≈ 1.9 µM).
